{"source": "patent EP0563062B1", "about": "“HEXAPEPTIDES DERIVING FROM AGLUCOTEICOPLANIN AND A PROCESS FOR PREPARING THEM” (GRUPPO LEPETIT S.p.A., priority 1990, dated 1992)", "assay_in_all_cases": "MIC, microdilution method in broth, in comparison with teicoplanin", "format_in_all_cases": "cell-based", "key": {"[1]": {"test_system": "S. epidermidis and S. haemolyticus, two species of Coagulase-Negative Staphylococci (CNS)", "settings": "relative to teicoplanin; Iso-Sensitest broth, inoculum about 10^5 cfu/ml, 18-24 hours at 37°C", "experimental": "(§1) The antimicrobial activity, expressed as minimal inhibitory concentration (MIC), of the hexapeptide of formula (I), R = hydrogen, against selected strains of Gram-positive bacteria was determined in comparison with teicoplanin. The microdilution method in Difco Todd-Hewitt broth (Streptococci) or Oxoid Iso-Sensitest broth (Staphylococci) was used."}, "[2]": {"test_system": "Staphylococci and Streptococci", "settings": "relative to teicoplanin; inoculum about 10^5 cfu/ml, 18-24 hours at 37°C", "experimental": "as §1"}, "[3]": {"test_system": "two strains of S. aureus and S. epidermidis showing low sensitivity to teicoplanin", "settings": "Iso-Sensitest broth, 18-24 hours at 37°C", "experimental": "as §1"}}}
{"substance": "aglucoteicoplanin hexapeptide", "values": [{"measurement": "antimicrobial activity, expressed as minimal inhibitory concentration (MIC)", "setting": "[1]", "value": "same degree of activity"}, {"measurement": "antimicrobial activity, expressed as minimal inhibitory concentration (MIC)", "setting": "[2]", "value": "generally less active than teicoplanin"}, {"measurement": "antimicrobial activity (MIC), fold relative to teicoplanin", "setting": "[3]", "value": "four to sixteen times more active"}]}
